How the values were obtained:
[1] = test system: THP-1 cell; assay: Cytotoxic activity assay; assay type: cell-based; conditions: 48 h, at the tested concentrations
Description: Cytotoxic activity assays. THP-1 cell was seeded in 96-well plates at a density of 5x10^4 cells/well and NIH/3T3 cells were seeded in 96-well plates at a density of 5x10^3 cells/well both incubated overnight at 37°C in a humidified atmosphere of 5% CO2. Subsequently, cells were treated with test compounds at the indicated concentrations and DMSO as control for 24 h. The test compounds were dissolved in DMSO (stock solution) and diluted with medium to a final DMSO concentration of 0.2%. MTT solution (50 µL, 7 mg/mL in PBS) was added to each well and plates were incubated for an additional 2 h. Next, the medium was removed and 100 µL of DMSO was added to each well to dissolve the formazan crystals that formed. The absorbance was measured at 590 nm using a spectrophotometric ELISA plate reader (SpectraMax® i3, Molecular Devices, CA, USA). Samples were considered nontoxic for the THP-1 and NIH/3T3 cell line when cell viability was ≥90%.
To analyse the cytotoxic activities of the test compound, THP-1 and NIH/3T3 cells were incubated with ODZN for 48 h and cytotoxicity was measured by fluorescence microscopy using an Incuyte microscope. […] (Figure 1).

[2] = Total antioxidant activity assay (DPPH free radical assay, cell-free)
Description: Total antioxidant activity assay. […] DPPH (1,1-Diphenyl-2-[…]) is a purple coloured stable free radical that is reduced to the yellow-coloured diphenylpicrylhydrazine. In a volume of 1 mL of methanol the test samples are mixed with DPPH 0.125 mM. Trolox (200 µM) is included as a positive control. After 30 min of incubation at room temperature in the dark the absorbance measurements are read at 517 nm using Thermo Scientific Genesys 10 uv scanning spectrophotometer. Lower absorbance of the reaction mixtures indicated higher free radical-scavenging activity. DPPH radical-scavenging activity is calculated according to the following formula: %Antioxidant activity = [(Ac−As)/Ac] × 100 [formula]
Where Ac (control) is the absorbance of the control reaction (DPPH) and As (sample) is the absorbance of DPPH and sample.

[3] = test system: THP-1 cell; assay: Cellular antioxidant activity assay (TBHP-induced ROS production, DCFH-DA probe) in THP-1; assay type: cell-based; conditions: Homo sapiens, intracellular ROS induced by TBHP
Description: Cellular antioxidant activity assays. The intracellular accumulation of ROS is detected by fluorimetry using 2',7'-[…] (DCFH-DA). The THP-1 cell (1x10^5 cells/well) are cultured in a 96-well black plate in DMEM supplemented with 10% FBS; culture medium is renewed when the cells reached 80% confluence. For inhibition, the cells are pre-incubated with the test substances for 30 min and treated with 0,4 mM Tert-butylhydroperoxide (TBHP). After 3 h the cells are incubated with 10 µM DCFH-DA in the culture medium at 37°C for 30 min.
The acetate groups on DCFH-DA are removed by an intracellular esterase, trapping the probe inside the THP-1 cell. Then, the cells are washed with PBS at 37°C and the production of ROS measured by changes in fluorescence due to the intracellular accumulation of DCF caused by the oxidation of DCFH. Intracellular ROS, as indicated by DCF fluorescence is detected using the Incucyte FLR software; the data are analyzed by the total green object integrated intensity (GCU x µm^2 x well) of the imaging system IncuCyte HD (Essen BioScience).

[4] = test system: NIH/3T3 cell; assay: Cellular antioxidant activity assay (TBHP-induced ROS production, DCFH-DA probe) in NIH/3T3; assay type: cell-based; conditions: Mus musculus, NIH3T3, intracellular ROS induced by TBHP
[5] = test system: TNF-α; assay: TNF-α activity assay (ELISA) in THP-1; assay type: cell-based; conditions: Homo sapiens; THP-1 cell; read-out: inhibition of TNF-α production IC50
Description: (§1) TNF-α activity assays. The protein expression levels of TNF-α were measured by using an enzyme-linked immunosorbent assay (ELISA) kit according to the manufacturer's instructions (Diaclone). Absorbance was read at 450 nm on a spectrophotometric ELISA plate reader (Anthos 2020, Version 2.0.5, Biochrom Ltd.,UK). The percentage of TNF-α inhibition was calculated from the ratio between the observed TNF-α amount secreted by treated cells (nM) and the baseline secretion of TNF-α (nM). Dexamethasone (Sigma-Aldrich; 50-02-2), was used as positive control (0.01 µM). Results were normalized to the solvent control DMSO (0.1%).

[6] = test system: TNF-α; assay: TNF-α activity assay (ELISA) in NIH/3T3; assay type: cell-based; conditions: Mus musculus, NIH3T3; NIH/3T3 cell; read-out: inhibition of TNF-α production IC50
Description: as §1

[7] = test system: NF-κB; assay: NF-κB activity assay in THP-1; assay type: cell-based; conditions: Homo sapiens; THP-1 cell; read-out: inhibition of NF-κB production IC50
[8] = test system: NF-κB; assay: NF-κB activity assay (KBF-Luc luciferase reporter) in NIH/3T3; assay type: cell-based; conditions: Mus musculus, NIH3T3; NIH/3T3 cell; read-out: inhibition of NF-κB production IC50
Description: NF-κB activity assays. The NIH/3T3-KBF-Luc cells has been stably transfected with the plasmid KBF-Luc plasmid, which contains three copies of NF-κB binding site (from major histocompatibility complex promoter), fused to a minimal simian virus 40 promoter driving the luciferase gene. Cells (1x10^4 for NIH/3T3-KBF-Luc) are seeded the day before the assay on 96-well plate. Then the cells are treated with the test substances for 15 min and then stimulated with 30 ng/mL TNF-α. After 6 h, the cells are washed twice with PBS and lysed in 50µl lysis buffer containing 25 mM Tris-phosphate (pH 7.8), 8 mM MgCl2, 1 mM DTT, 1% Triton X-100, and 7% glycerol during 15 min at RT in a horizontal shaker. Luciferase activity is measured using a GloMax 96 microplate luminometer (Promega) following the instructions of the luciferase assay kit (Promega, Madison, WI, USA). The RLU is calculated and the results are expressed as percentage of inhibition of NF-κB activity induced by TNF-α (100% activation). The experiments for each concentration of the test items will be done in triplicate wells.

[9] = test system: STAT3; assay: STAT3 activity assay (HeLa-STAT3-luc luciferase reporter); assay type: cell-based; conditions: HeLa-STAT3-Luc cells, IFNγ 25 U/mL, 6 h; read-out: inhibition of IFNγ-induced STAT3 activation IC50
Description: STAT3 activity assay. The HeLa-STAT3-luc cells have been stably transfected with the plasmid 4xM67 pTATA TK-Luc. Cells (15 x10^3 cells/mL) are seeded 96-well plate the day before the assay. Then the cells are treated with the compound for 15 min and then stimulated with IFN-γ 25 IU/mL. After 6 h, the cells are washed twice with PBS and lysed in 50 µL lysis buffer containing 25 mM Tris-phosphate (pH 7.8), 8 mM MgCl2, 1 mM DTT, 1% Triton X-100, and 7% glycerol during 15 min at RT in a horizontal shaker. Luciferase activity was measured using GloMax 96 microplate luminometer (Promega) following the instructions of the luciferase assay kit (Promega, Madison, WI, USA). The RLU is calculated and the results are expressed as percentage of inhibition of STAT3 activity induced by IFN-γ (100% activation). The experiments for each concentration of the test items will be done in triplicate wells.

[10] = test system: HIF-1α; assay: HIF-1α activity assay (NIH/3T3-EPO-luc luciferase reporter); assay type: cell-based; conditions: 6 h, read-out: inhibition of DFX-induced activation of EPO-Luc (surrogated marker of HIF-1α stabilization) IC50
Description: HIF-1α activity assay. The NIH/3T3-EPO-luc cells have been stably transfected with the plasmid Epo-Luc plasmid. The EPO-Hypoxia Response Element (HRE)-luciferase reporter plasmid contains three copies of the HRE consensus sequence from the promoter of the erythropoietin gene in the pGL3 vector. Cells (1x10^4 for NIH/3T3-EPO-luc) are seeded the day before the assay. The next day, the cells are stimulated either with the compound or Desferrioxamine (DFX) 150 µM as a positive control. After 6 hours of stimulation the cells are lysed in 25 mM Tris-phosphate pH 7.8, 8 mM MgCl2, 1 mM DTT, 1% Triton X-100, and 7% glycerol during 15 min at RT in a horizontal shaker. Luciferase activity is measured using a GloMax 96 microplate luminometer (Promega) following the instructions of the luciferase assay kit (Promega, Madison, WI, USA). The RLU is calculated and the results are expressed as percentage of inhibition induction/inhibition of EPO-luc activity. The experimentsfor each concentration of the test items will be done in triplicate wells.

[11] = molecular target: T1, tyrosinase (Mus musculus, UniProt P11344); assay: Tyrosinase activity assay in B16-F10 melanoma cells; assay type: cell-based; conditions: 72 h treatment, read-out: inhibits melanin synthesis IC50
T1 construct: To measure the tyrosinase activity of the cells, the B16-F10 cells treated for 3 days; endogenous in cells; host or cells: B16-F10 melanoma cells
T1 sequence (P11344 19-533): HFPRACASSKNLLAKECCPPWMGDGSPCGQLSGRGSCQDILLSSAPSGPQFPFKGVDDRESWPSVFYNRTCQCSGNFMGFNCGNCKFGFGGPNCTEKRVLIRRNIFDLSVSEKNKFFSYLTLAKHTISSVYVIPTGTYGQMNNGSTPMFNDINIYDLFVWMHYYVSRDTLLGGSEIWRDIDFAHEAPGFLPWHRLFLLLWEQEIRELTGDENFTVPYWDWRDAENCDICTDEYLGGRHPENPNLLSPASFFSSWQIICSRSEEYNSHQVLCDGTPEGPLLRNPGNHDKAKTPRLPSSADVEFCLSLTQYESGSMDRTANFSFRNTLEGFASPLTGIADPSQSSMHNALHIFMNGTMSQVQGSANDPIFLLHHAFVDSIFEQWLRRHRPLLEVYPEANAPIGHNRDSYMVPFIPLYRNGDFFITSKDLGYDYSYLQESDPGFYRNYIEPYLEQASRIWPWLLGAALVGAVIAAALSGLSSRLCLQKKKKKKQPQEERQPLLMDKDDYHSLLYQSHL
Description: Tyrosinase activity assay. To measure the tyrosinase activity of the cells, the B16-F10 cells treated for 3 days with several doses of the compound is lysed by incubation at 4°C for 30 min in lysis buffer (20 mM sodium phosphate, pH 6.8, 1% Triton X-100, 1 mM PMSF, 1 mM EDTA) containing protease inhibitors cocktail. The lysates are centrifuged at 15,000 × g for 10 min to obtain the supernatant as the source of tyrosinase. The reaction mixture contained 20 mM phosphate buffer, pH 6.8, 1.25 mM L-DOPA (Sigma-Aldrich). After incubation at 37°C for 2 h, dopachrome formation is monitored by measuring absorbance at a wavelength of 475 nm in a microplatereader (TECAN). Kojic acid 2 mM is used as a positive control.

| IC50 ([2]; cell-free assay (DPPH)) [nM] | IC50 [3] [nM] | IC50 [5] [nM] | IC50 [6] [nM] | IC50 [7] [nM] | IC50 [8] [nM] | IC50 [9] [nM] | IC50 [10] [nM] | IC50 [11] [nM] | Compound | cytotoxicity [1] | IC50 [4] [nM] | antioxidant activity ([2]; DPPH free radical assay, standard, 200 µM positive control) [%] |
| --- | --- | --- | --- | --- | --- | --- | --- | --- | --- | --- | --- | --- |
| 9.77 | 10.6 | 14.8 | 8.21 | 56.3 | 31.8 | 1.57 | 9.59 | 16.9 | CCCCCC1=NN(C(=O)CCO)OC(CCCCC)C1 (stereo not drawn) [ODZN, 1-(4,6-dipentyl-5,6-dihydro-2H-1,2,3-oxadiazin-2-yl)-3-hydroxypropan-1-one] | no cytotoxicity | 3.33 |  |
|  |  |  |  |  |  |  |  |  | Cc1c(C)c2c(c(C)c1O)CCC(C)(C(=O)O)O2 (stereo not drawn) [Trolox, reference compound] |  |  | 92.08 |

— EP3744328B1, “USES OF OXADIAZINE COMPOUNDS” (Valoralia I Más D, S.L.U., priority 2019, dated 2020)
